This is an account of results in patent US12012388B1, “4-chloro-n'-(2-(5-(4-chlorophenyl)-1,3,4-oxadiazol-2-ylthio)acetoxy)benzimidamide as an antimicrobial compound” (KING FAISAL UNIVERSITY, priority 2023, dated 2024).

Holding throughout (type): cell-based
Assay [1] concerns Bacillus Cereus. The assay can be described thus: Agar plate disc-diffusion, antibacterial activity (inhibition zone). The note with it: nutrient agar, 37° C., 48 h, DMSO zone subtracted. As to the method:
(§1) The agar plate disc-diffusion method was applied. Sterilized filter papers (6 mm in diameter) were wetted with 10 μL of a solution of 4-chloro-N′-(2-(5-(4-chlorophenyl)-1,3,4-oxadiazol-2-ylthio)acetoxy)benzimidamide (3) to be tested, containing 10 mg/mL in DMSO, and the discs were allowed to air dry. The discs were then placed onto the surface of agar plates (nutrient agar for bacteria and Sabouraud's dextrose agar for fungi) seeded with the test organism. Each plate contained 15 mL of the agar medium, previously seeded with 0.2 mL of the broth culture of each organism pregrown for 18 hours. The plates were incubated at 37° C. for 48 h, and 72 h for fungi. The inhibition zones were measured in mm. Discs impregnated with DMSO were used as a control, and its inhibition zone was subtracted from the tested compound actual inhibition zone.
(§2) The results of the antimicrobial testing can be observed in Tables 1 and 2, below, using ciprofloxacin as a reference.
On the technique in general: In agar diffusion tests the substance spreads into inoculated agar from a disc or well.

The subject of assay [2] is Escherichia coli. Described as above. The note with it: nutrient agar, 37° C., 48 h, DMSO zone subtracted. The procedure:
as §1, §2

Assay [3] concerns Pseudomonas aeruginosa. The assay is described as above. As to conditions: nutrient agar, 37° C., 48 h, DMSO zone subtracted. As to the method: as §1, §2
Assay [4] concerns Staphylococcus aureus. The description is as above. The note with it: nutrient agar, 37° C., 48 h, DMSO zone subtracted. As to the method: as §1, §2
Assay [5] concerns Aspergillus flavus. The assay can be described thus: Agar plate disc-diffusion, antifungal activity (inhibition zone). The note with it: Sabouraud's dextrose agar, 37° C., 72 h, DMSO zone subtracted. The procedure: as §1, §2
For assay [6], the system named is Chrysosporium keratinophilum. The description is as above. As to conditions: Sabouraud's dextrose agar, 37° C., 72 h, DMSO zone subtracted. As to the method:
as §1, §2

Setting [7] is: A = concentration of comp. = 10,000 μL.
The mark [8] stands for this setting: B = concentration of comp. = 30.000 μL.
Where [9] appears, read: C = concentration of comp. = 50,000 μL.

Consider `N/C(=N\OC(=O)CSc1nnc(-c2ccc(Cl)cc2)o1)c1ccc(Cl)cc1` [Compound 3, 4-chloro-N′-(2-(5-(4-chlorophenyl)-1,3,4-oxadiazol-2-ylthio)acetoxy)benzimidamide], for which the “inhibition zone, Bacillus Cereus, A” value in assay [1] (setting [7]) is on record as 20 mm. In assay [1] (setting [8]), the “inhibition zone, Bacillus Cereus, B” value is 26 mm. Moreover, the “inhibition zone, Bacillus Cereus, C” value in assay [1] (setting [9]) turned out to be 39 mm. For the same compound, the “inhibition zone, Escherichia coli, A” value in assay [2] (setting [7]) worked out at 27 mm. Moreover, the “inhibition zone, Escherichia coli, B” value in assay [2] (setting [8]) came to 34 mm. In addition, in assay [2] (setting [9]), the “inhibition zone, Escherichia coli, C” value is 41 mm. For the same compound, the “inhibition zone, Pseudomonas aeruginosa, A” value in assay [3] (setting [7]) was 21 mm. For the same compound, the “inhibition zone, Pseudomonas aeruginosa, B” value in assay [3] (setting [8]) is 24 mm. Also, the “inhibition zone, Pseudomonas aeruginosa, C” value in assay [3] (setting [9]) was 36 mm. The “inhibition zone, Staphylococcus aureus, A” value in assay [4] (setting [7]) was found to be 19 mm. In addition, the “inhibition zone, Staphylococcus aureus, B” value in assay [4] (setting [8]) is 24 mm. Further, the “inhibition zone, Staphylococcus aureus, C” value in assay [4] (setting [9]) came to 37 mm. Further, the “inhibition zone, Aspergillus flavus, A” value in assay [5] (setting [7]) is given as 24 mm. Also, the “inhibition zone, Aspergillus flavus, B” value in assay [5] (setting [8]) was found to be 26 mm. Also, the “inhibition zone, Aspergillus flavus, C” value in assay [5] (setting [9]) worked out at 35 mm. Besides, the “inhibition zone, Chrysosporium keratinophilum, A” value in assay [6] (setting [7]) was 25 mm. In addition, the “inhibition zone, Chrysosporium keratinophilum, B” value in assay [6] (setting [8]) is 27 mm. Further, the “inhibition zone, Chrysosporium keratinophilum, C” value in assay [6] (setting [9]) was determined as 40 mm.
